In patent publication US9290485B2, “N-((6-amino-pyridin-3-yl)methyl)-heteroaryl-carboxamides” (NOVARTIS AG, priority 2010, dated 2016) one finds IC50 data, which are given here for 24 molecules.

In the experiment the target is human plasma kallikrein (Homo sapiens (Human), UniProt P03952). As to conditions: human plasma kallikrein 25 pM, substrate 0.5 uM, 1 hour pre-incubation at room temperature, read at t=60 min.
human plasma kallikrein, sequence (P03952 whole entry, looked up): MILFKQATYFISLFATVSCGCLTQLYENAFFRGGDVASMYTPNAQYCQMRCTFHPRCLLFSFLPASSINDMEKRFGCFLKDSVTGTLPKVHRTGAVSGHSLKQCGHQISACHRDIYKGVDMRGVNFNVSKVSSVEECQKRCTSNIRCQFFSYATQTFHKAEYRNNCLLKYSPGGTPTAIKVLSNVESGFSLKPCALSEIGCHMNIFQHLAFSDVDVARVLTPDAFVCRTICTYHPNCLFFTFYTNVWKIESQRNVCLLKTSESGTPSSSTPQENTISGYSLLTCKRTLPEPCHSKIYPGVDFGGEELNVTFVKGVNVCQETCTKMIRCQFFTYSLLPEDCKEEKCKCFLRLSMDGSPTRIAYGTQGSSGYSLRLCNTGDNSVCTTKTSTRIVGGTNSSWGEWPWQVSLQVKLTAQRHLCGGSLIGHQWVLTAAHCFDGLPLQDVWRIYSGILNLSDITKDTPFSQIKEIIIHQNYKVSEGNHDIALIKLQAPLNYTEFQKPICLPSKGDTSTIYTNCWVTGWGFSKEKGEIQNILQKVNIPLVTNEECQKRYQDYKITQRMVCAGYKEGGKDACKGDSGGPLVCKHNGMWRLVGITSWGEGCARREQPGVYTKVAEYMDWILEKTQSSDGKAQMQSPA
human plasma kallikrein, sequence (P03952 whole entry partner, looked up): as the sequence (P03952 whole entry, looked up) above
Method: All other chemicals were of analytical grade.
A stock solution of 0.17 mg/ml deinonized water was stored at −80° C. Enzymatic reactions were conducted in ‘assay buffer’, comprising 50 mM Hepes/NaOH at pH 7.8, 150 mM NaCl, 1 mM EDTA and 0.05% (w/v) CHAPS.
Both, enzyme and substrate were diluted in assay buffer.
All protein and peptide containing solutions were handled in siliconized tubes (Life Systems Design, Merenschwand, Switzerland). […] Plate measurements were conducted by the means of a Safire2 reader (TECAN, Maennedorf, Switzerland). The Safire2 is a monochomator-based instrument and wavelengths of 485 nm and 535 nm were taken for fluorescence excitation and emission acquisition, respectively. The bandwidths were set to 10 nm in both the excitation and the emission path. The fluorescence in each well was excited by three flashes per measurement.
The test compound was dissolved in 90% (v/v) DMSO/water. For the assays, 250 nL of the 90% (v/v) DMSO/water solution or compound solution were added per well, followed by the addition of 12.5 μl protease solution (protease in assay buffer). […] After 1 hour of pre-incubation at room temperature, the reactions were started by the addition of 12.5 μl substrate solution (in assay buffer, final assay concentration was 0.5 uM). After the addition of the substrate solution, the final DMSO concentration in the assay was 0.9% (v/v). […] The IC50 value was calculated from the plot of percentage of inhibition vs. inhibitor concentration by a logistics fit according to the following equation: y=A2+(A1−A2)/(1+(x/IC50)^p) where y is the %-inhibition at the inhibitor concentration, x. A1 is the lowest inhibition value, i.e. 0%, and A2 the maximum inhibition value, i.e. 100%. The exponent, p, is the Hill coefficient. The curve fitting was conducted with the non-linear regression routine of the analysis software Origin 7.55R6 (OriginLab Corporation).
Molecule `Cc1cc(N)nc(C)c1CNC(=O)c1nc(Cc2ccc(Oc3ccccc3)cc2)n[nH]1` [Example 125, N-((6-amino-2,4-dimethylpyridin-3-yl)methyl)-3-(4-phenoxybenzyl)-1H-1,2,4-triazole-5-carboxamide] displayed an IC50 of 36 nM.

Take `Cc1cc(N)nc(C)c1CNC(=O)c1cnn(Cc2ccc(S(=O)(=O)N(C)C)cc2)c1` [Example 126, N-((6-amino-2,4-dimethylpyridin-3-yl)methyl)-1-(4-(N,N-dimethylsulfamoyl)benzyl)-1H-pyrazole-4-carboxamide]: the IC50 came out at 670 nM.

Turning to `Cc1cc(N)nc(C)c1CNC(=O)c1ccn(S(=O)(=O)c2ccc(-c3ccccc3)cc2)c1` [Example 127, N-((6-amino-2,4-dimethylpyridin-3-yl)methyl)-1-(biphenyl-4-ylsulfonyl)-1H-pyrrole-3-carboxamide], the midpoint of inhibition, the IC50, lay at 16 nM.

In the case of `Cc1cc(N)nc(C)c1CNC(=O)c1ccn(S(=O)(=O)c2ccc(Cl)s2)c1` [Example 128, N-((6-amino-2,4-dimethylpyridin-3-yl)methyl)-1-(5-chlorothiophen-2-ylsulfonyl)-1H-pyrrole-3-carboxamide], the IC50 turned out to be 301 nM.

For the molecule `COc1cccc(S(=O)(=O)n2ccc(C(=O)NCc3c(C)cc(N)nc3C)c2)c1` [Example 129, N-((6-amino-2,4-dimethylpyridin-3-yl)methyl)-1-(3-methoxyphenylsulfonyl)-1H-pyrrole-3-carboxamide], half-maximal inhibition (IC50) required 244 nM.

The molecule `Cc1cc(N)nc(C)c1CNC(=O)c1ccn(S(=O)(=O)c2ccc3c(c2)N(C)CCO3)c1` [Example 130, N-((6-amino-2,4-dimethylpyridin-3-yl)methyl)-1-(4-methyl-3,4-dihydro-2H-benzo[b][1,4]oxazin-6-ylsulfonyl)-1H-pyrrole-3-carboxamide] yielded an IC50 of 67 nM.

Molecule `Cc1cc(N)nc(C)c1CNC(=O)c1ccn(S(=O)(=O)c2ccc3c(ccn3C)c2)c1` [Example 131, N-((6-amino-2,4-dimethylpyridin-3-yl)methyl)-1-(1-methyl-1H-indol-5-ylsulfonyl)-1H-pyrrole-3-carboxamide] showed an IC50 of 9 nM.

In turn, `Cc1cc(N)nc(C)c1CNC(=O)c1ccn(S(=O)(=O)c2cccc(-c3ncccn3)c2)c1` [Example 132, N-((6-amino-2,4-dimethylpyridin-3-yl)methyl)-1-(3-(pyrimidin-2-yl)phenylsulfonyl)-1H-pyrrole-3-carboxamide] displayed an IC50 of 71 nM.

In turn, `Cc1cc(C)n(-c2ccc(S(=O)(=O)n3ccc(C(=O)NCc4c(C)cc(N)nc4C)c3)cc2)n1` [Example 133, N-((6-amino-2,4-dimethylpyridin-3-yl)methyl)-1-(4-(3,5-dimethyl-1H-pyrazol-1-yl)phenylsulfonyl)-1H-pyrrole-3-carboxamide] gave an IC50 of 196 nM.

As to `Cc1cc(N)nc(C)c1CNC(=O)c1cnn(Cc2ccc(OCC(=O)O)cc2)c1` [Example 134, 2-(4-((4-((6-amino-2,4-dimethylpyridin-3-yl)methylcarbamoyl)-1H-pyrazol-1-yl)methyl)phenoxy)acetic acid], the 50% inhibitory concentration (IC50) was 1100 nM.

As for `Cc1cc(N)nc(C)c1CNC(=O)c1cnn(Cc2ccc(OCC#N)cc2)c1` [Example 135, N-((6-amino-2,4-dimethylpyridin-3-yl)methyl)-1-(4-(cyanomethoxy)benzyl)-1H-pyrazole-4-carboxamide], the IC50 worked out at 89 nM.

`Cc1nc(N)cc(OCc2ncco2)c1CNC(=O)c1cn(Cc2ccccc2)nn1` [Example 137, N-((6-amino-2-methyl-4-(oxazol-2-ylmethoxy)pyridin-3-yl)methyl)-1-benzyl-1H-1,2,3-triazole-4-carboxamide] yielded an IC50 of 127 nM.

The molecule `Cc1cc(N)ncc1CNC(=O)c1cnn(Cc2ccccc2)c1` [Example 138, N-((6-amino-4-methylpyridin-3-yl)methyl)-1-benzyl-1H-pyrazole-4-carboxamide] returned an IC50 of 62700 nM.

As for `Cc1cc(N)nc(C)c1CNC(=O)c1cnn(Cc2ccc(Cn3ccc(=O)[nH]3)cc2)c1` [Example 139, N-((6-amino-2,4-dimethylpyridin-3-yl)methyl)-1-(4-((3-oxo-2,3-dihydro-1H-pyrazol-1-yl)methyl)benzyl)-1H-pyrazole-4-carboxamide], the IC50 came to 4.9 nM.

Molecule `Cc1cc(N)nc(C)c1CNC(=O)c1cnn(Cc2ccc(Cn3ccnn3)cc2)c1` [Example 140, 1-(4-((1H-1,2,3-triazol-1-yl)methyl)benzyl)-N-((6-amino-2,4-dimethylpyridin-3-yl)methyl)-1H-pyrazole-4-carboxamide] came in with an IC50 of 4.6 nM.

In turn, `Cc1cc(N)nc(C)c1CNC(=O)c1cnn(Cc2ccc(Cn3c(C)cc(=O)n3C)cc2)c1` [Example 141, N-((6-amino-2,4-dimethylpyridin-3-yl)methyl)-1-(4-((2,5-dimethyl-3-oxo-2,3-dihydro-1H-pyrazol-1-yl)methyl)benzyl)-1H-pyrazole-4-carboxamide] registered an IC50 of 1.2 nM.

Molecule `Cc1cc(N)nc(C)c1CNC(=O)c1cnn(Cc2ccc(Cn3ccccc3=O)cc2)c1` [Example 142, N-((6-amino-2,4-dimethylpyridin-3-yl)methyl)-1-(4-((2-oxopyridin-1(2H)-yl)methyl)benzyl)-1H-pyrazole-4-carboxamide] came in with an IC50 of 0.0224 nM.

`Cc1cc(N)nc(C)c1CNC(=O)c1cnn(Cc2ccc(CN3CCCC3=O)cc2)c1` [Example 143, N-((6-amino-2,4-dimethylpyridin-3-yl)methyl)-1-(4-((2-oxopyrrolidin-1-yl)methyl)benzyl)-1H-pyrazole-4-carboxamide] came in with an IC50 of 2.6 nM.

As to `Cc1nc(N)cc(Cl)c1CNC(=O)c1cnn(Cc2ccccc2)c1` [Example 144, N-((6-amino-4-chloro-2-methylpyridin-3-yl)methyl]-1-benzyl-1H-pyrazole-4-carboxamide], the IC50 amounted to 42400 nM.

The molecule `Cc1cc(N)nc(C)c1CNC(=O)c1cnn(Cc2ccc(Cn3cccn3)cc2)c1` [Example 145, 1-(4-((1H-pyrazol-1-yl)methyl)benzyl)-N-((6-amino-2,4-dimethylpyridin-3-yl)methyl)-1H-pyrazole-4-carboxamide] gave a half-inhibitory concentration (IC50) of 0.2 nM.

`Cc1cnn(Cc2ccc(Cn3cc(C(=O)NCc4c(C)cc(N)nc4C)cn3)cc2)c1` [Example 146, N-((6-amino-2,4-dimethylpyridin-3-yl)methyl)-1-(4-((4-methyl-1H-pyrazol-1-yl)methyl)benzyl)-1H-pyrazole-4-carboxamide] yielded an IC50 of 0.04 nM.

`Cc1cc(C)n(Cc2ccc(Cn3cc(C(=O)NCc4c(C)cc(N)nc4C)nn3)cc2)n1` [Example 148, N-((6-amino-2,4-dimethylpyridin-3-yl)methyl)-1-(4-((3,5-dimethyl-1H-pyrazol-1-yl)methyl)benzyl)-1H-1,2,3-triazole-4-carboxamide]: the IC50 was found to be 0.03 nM.

`Cc1nc(N)cc(OCC(=O)C(C)(C)C)c1CNC(=O)c1cnn(Cc2ccc3ccccc3c2)c1` [Example 149, N-((6-amino-4-(3,3-dimethyl-2-oxobutoxy)-2-methylpyridin-3yl)methyl)-1-(naphthalen-2-ylmethyl)-1H-pyrazole-4-carboxamide] had an IC50 of 7.8 nM.

On to `COCCN1CCCc2ccc(Cn3cc(C(=O)NCc4c(C)cc(N)nc4C)cn3)cc21` [Example 150, N-((6-Amino-2,4-dimethylpyridin-3-yl)methyl)-1-((1-(2-methoxyethyl)-1,2,3,4-tetrahydroquinolin-7-yl)methyl)-1H-pyrazole-4-carboxamide], for which the IC50 stood at 10 nM.

As usually defined, the IC50 is the concentration that inhibits the measured activity by half. High values mean lower potency, low ones higher potency.
